Experimental data reported in the supplement of paper PMC11451515.

Tested on: P12-Ichikawa
Experiment: cell viability relative to DMSO control; higher = less cytotoxic
Conditions: 48 h
How it was run: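 Before seeding, each leukemia line was adapted for at least four passages in each medium. NOMO1 or SEM cells (500 cells/well) and P12-Ichikawa cells (1000 cells/well) went into 1536-well plates at 5 μl, then received library compounds in DMSO by pin dosing across 11 threefold concentrations, 47 μM to 0.79 nM. Readout was CellTiter-Glo One luminescence after 48 h at 37°C, and viability is given as a per-plate percentage of DMSO wells, with cell-free wells as background.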

[1] = HPLM + 10% dialyzed FBS, 0.000781 µM
[2] = HPLM + 10% dialyzed FBS, 0.00234 µM
[3] = HPLM + 10% dialyzed FBS, 0.00702 µM
[4] = HPLM + 10% dialyzed FBS, 0.0211 µM
[5] = HPLM + 10% dialyzed FBS, 0.0632 µM
[6] = HPLM + 10% dialyzed FBS, 0.19 µM
[7] = HPLM + 10% dialyzed FBS, 0.569 µM
[8] = HPLM + 10% dialyzed FBS, 1.71 µM
[9] = HPLM + 10% dialyzed FBS, 5.12 µM
[10] = HPLM + 10% dialyzed FBS, 15.4 µM
[11] = HPLM + 10% dialyzed FBS, 46.1 µM
[12] = RPMI 5 mM glucose + 10% FBS, 0.000781 µM
[13] = RPMI 5 mM glucose + 10% FBS, 0.00234 µM
[14] = RPMI 5 mM glucose + 10% FBS, 0.00702 µM
[15] = RPMI 5 mM glucose + 10% FBS, 0.0211 µM
[16] = RPMI 5 mM glucose + 10% FBS, 0.0632 µM
[17] = RPMI 5 mM glucose + 10% FBS, 0.19 µM
[18] = RPMI 5 mM glucose + 10% FBS, 0.569 µM
[19] = RPMI 5 mM glucose + 10% FBS, 1.71 µM
[20] = RPMI 5 mM glucose + 10% FBS, 5.12 µM
[21] = RPMI 5 mM glucose + 10% FBS, 15.4 µM
[22] = RPMI 5 mM glucose + 10% FBS, 46.1 µM
[23] = RPMI 5 mM glucose + 10% dialyzed FBS, 0.000781 µM
[24] = RPMI 5 mM glucose + 10% dialyzed FBS, 0.00234 µM
[25] = RPMI 5 mM glucose + 10% dialyzed FBS, 0.00702 µM
[26] = RPMI 5 mM glucose + 10% dialyzed FBS, 0.0211 µM
[27] = RPMI 5 mM glucose + 10% dialyzed FBS, 0.0632 µM
[28] = RPMI 5 mM glucose + 10% dialyzed FBS, 0.19 µM
[29] = RPMI 5 mM glucose + 10% dialyzed FBS, 0.569 µM
[30] = RPMI 5 mM glucose + 10% dialyzed FBS, 1.71 µM
[31] = RPMI 5 mM glucose + 10% dialyzed FBS, 5.12 µM
[32] = RPMI 5 mM glucose + 10% dialyzed FBS, 15.4 µM
[33] = RPMI 5 mM glucose + 10% dialyzed FBS, 46.1 µM

Structure (SMILES) | cell viability [1] [%] | cell viability [2] [%] | cell viability [3] [%] | cell viability [4] [%] | cell viability [5] [%] | cell viability [6] [%] | cell viability [7] [%] | cell viability [8] [%] | cell viability [9] [%] | cell viability [10] [%] | cell viability [11] [%] | cell viability [12] [%] | cell viability [13] [%] | cell viability [14] [%] | cell viability [15] [%] | cell viability [16] [%] | cell viability [17] [%] | cell viability [18] [%] | cell viability [19] [%] | cell viability [20] [%] | cell viability [21] [%] | cell viability [22] [%] | cell viability [23] [%] | cell viability [24] [%] | cell viability [25] [%] | cell viability [26] [%] | cell viability [27] [%] | cell viability [28] [%] | cell viability [29] [%] | cell viability [30] [%] | cell viability [31] [%] | cell viability [32] [%] | cell viability [33] [%]
COC[C@@H](NC(C)=O)C(=O)NCc1ccccc1 | 117 | 101 | 107 | 118 | 118 | 110 | 110 | 111 | 113 | 104 | 12.8 | 94.8 | 100 | 112 | 112 | 113 | 121 | 111 | 110 | 106 | 110 | 53.5 | 105 | 118 | 106 | 110 | 96.9 | 109 | 108 | 116 | 104 | 109 | 59.8
CC(C)(C)c1cc(C=C(C#N)C#N)cc(Br)c1O | 96.9 | 116 | 74.7 | 114 | 122 | 122 | 123 | 120 | 121 | 116 | 104 | 101 | 110 | 67.7 | 117 | 115 | 123 | 124 | 113 | 123 | 121 | 100 | 106 | 114 | 79.7 | 116 | 126 | 132 | 117 | 132 | 130 | 113 | 110
C[C@@H]1COCCN1C\2=C\C(=O)N\3CC[C@H](N(CC4=CN=CC(=C4)Cl)C3=N2)C(F)(F)F | 94 | 101 | 98.9 | 94.3 | 97.5 | 103 | 101 | 104 | 85 | 32.7 | 22.5 | 91.4 | 94.1 | 95.7 | 89.2 | 98.3 | 107 | 97.2 | 108 | 76.5 | 40 | 17.5 | 99.4 | 102 | 106 | 98.8 | 107 | 99.6 | 114 | 99.8 | 86 | 30.8 | 17.6
O=C1\C=C/C[C@@H]2[C@H]3CCCN4CCC[C@@H](CN12)[C@@H]34 | 98.2 | 103 | 107 | 101 | 108 | 99.2 | 98.1 | 104 | 98.9 | 99.1 | 89.6 | 103 | 116 | 109 | 101 | 98.5 | 94.8 | 98.5 | 85.7 | 93.5 | 96.8 | 89.7 | 102 | 98.5 | 97.8 | 105 | 98.4 | 94 | 105 | 95.7 | 100 | 94.3 | 86.8
NC1=NC=C(C=C1)C2=CC=C3N=CC\4=C(N(C(=O)\C=C4)C5=CC(=CC=C5)C(F)(F)F)C3=C2 | 81.4 | 82.7 | 76.7 | 66.7 | 58.6 | 41.1 | 42.6 | 34.5 | 11.6 | 14 | 15.7 | 67.1 | 64.9 | 56.3 | 51.8 | 50.4 | 34 | 33.4 | 27.2 | 7.23 | 7.38 | 11.5 | 64.4 | 74.4 | 59.6 | 52.7 | 50.3 | 32.9 | 30.4 | 23.7 | 7.6 | 7.89 | 12.4
Cc1cccc(C)c1OCC(=O)N[C@@H](Cc1ccccc1)[C@@H](O)C[C@H](Cc1ccccc1)NC(=O)[C@H](C(C)C)N1CCCNC1=O | 99.5 | 96.1 | 98.2 | 102 | 95.7 | 97 | 91.9 | 89.1 | 90.2 | 86.2 | 61.8 | 98.5 | 101 | 93.9 | 96 | 102 | 99.6 | 97.4 | 91.7 | 91.3 | 87.1 | 56.8 | 91.6 | 87.8 | 94.1 | 88.7 | 91.2 | 90.1 | 93.6 | 79.2 | 85.6 | 83.9 | 54.8
c1cc(CN2CCCNCCNCCCNCC2)ccc1CN1CCCNCCNCCCNCC1 | 84 | 90.4 | 96.5 | 10.2 | 101 | 104 | 109 | 102 | 102 | 116 | 117 | 80.6 | 90.8 | 95.2 | 12.9 | 101 | 97.6 | 101 | 103 | 99 | 111 | 106 | 86.3 | 93.9 | 92.9 | 24.9 | 94.9 | 99.6 | 101 | 101 | 103 | 96.5 | 103
COc1cc2c(Nc3ccc(Cl)c(Cl)c3F)ncnc2cc1OC[C@@H]1C[C@@H]2CN(C)C[C@@H]2C1 | 105 | 115 | 118 | 126 | 119 | 111 | 109 | 83.2 | 71.1 | 49.5 | 10.1 |  |  |  |  |  |  |  |  |  |  |  |  |  |  |  |  |  |  |  |  |  | 
C1CCC(C(CC2CCCCN2)C2CCCCC2)CC1 (centres undefined) | 115 | 117 | 124 | 119 | 128 | 124 | 129 | 127 | 119 | 123 | 88.3 | 118 | 123 | 124 | 115 | 128 | 134 | 126 | 119 | 131 | 106 | 54.2 | 109 | 127 | 107 | 122 | 123 | 124 | 122 | 126 | 117 | 115 | 67.7
CC1=CC=CC=C1CN2C(=O)C/3=C(/CCN(CC4=CC=CC=C4)C3)N\5CC\N=C25 | 124 | 120 | 119 | 119 | 119 | 112 | 107 | 106 | 81.9 | 53.4 | 57.5 | 129 | 109 | 117 | 119 | 127 | 114 | 118 | 122 | 79.8 | 45.7 | 45.2 |  |  |  |  |  |  |  |  |  |  | 
CC(=O)OCC(=O)[C@@]12\N=C(C)/O[C@@H]1C[C@H]3[C@@H]4CCC/5=C/C(=O)/C=C\[C@]5(C)[C@H]4[C@@H](O)C[C@]23C | 103 | 111 | 108 | 113 | 103 | 114 | 108 | 105 | 80.6 | 73 | 63.9 | 102 | 123 | 116 | 114 | 85.1 | 115 | 115 | 94.1 | 85.5 | 62.8 | 55 | 93.6 | 102 | 112 | 107 | 104 | 111 | 102 | 86.9 | 67.2 | 57.7 | 49.4
CCCCCCCc1ccc(CCc2cccc(O)c2C(=O)O)cc1 | 122 | 124 | 126 | 124 | 119 | 111 | 123 | 110 | 108 | 104 | 90.2 | 125 | 121 | 127 | 129 | 128 | 119 | 107 | 111 | 104 | 97.7 | 91.3 |  |  |  |  |  |  |  |  |  |  | 
N[S+](=O)([O-])c1cc(Cl)c(Cl)c([S+](N)(=O)[O-])c1 | 116 | 108 | 112 | 112 | 107 | 105 | 92.3 | 102 | 108 | 101 | 97.9 | 100 | 109 | 109 | 113 | 100 | 103 | 106 | 97.3 | 106 | 99.8 | 100 | 97.5 | 105 | 97 | 101 | 104 | 101 | 105 | 97.2 | 101 | 98 | 89.8
Cc1c(Cn2c(C)nc3c(C(=O)O)cc(N4CCOCC4)cc32)cccc1C(F)(F)F | 102 | 109 | 107 | 116 | 115 | 108 | 120 | 106 | 104 | 110 | 87.8 | 98.6 | 100 | 108 | 115 | 111 | 102 | 113 | 109 | 99.5 | 89.2 | 94.2 | 92.9 | 112 | 109 | 122 | 115 | 106 | 119 | 111 | 96.9 | 107 | 100
NC(CO)(CO)CCc1ccc(Sc2cccc(OCc3ccccc3)c2)cc1Cl | 99.1 | 101 | 110 | 114 | 115 | 122 | 88.5 | 106 | 76.2 | 18.4 | 6.24 | 91.8 | 99.7 | 101 | 111 | 102 | 102 | 86.4 | 104 | 72.1 | 34.9 | 5.17 | 101 | 112 | 99.6 | 116 | 113 | 109 | 89.9 | 100 | 70.3 | 45.7 | 5.62
OC[C@H](Cc1ccccc1)Nc1nc(Oc2ccc3c(c2)CCC3)nc2c1ncn2Cc1ccc(-c2ccccc2)cc1 | 93 | 94.1 | 98.7 | 102 | 96.4 | 99.1 | 105 | 94.3 | 95.4 | 82.7 | 79.2 | 90.8 | 93.3 | 89 | 90.5 | 94.7 | 89.5 | 91 | 97.3 | 90.1 | 86 | 75.1 | 79.6 | 88.4 | 90.9 | 99 | 99.8 | 89.3 | 90.8 | 87.7 | 88.9 | 72.4 | 68.4
